According to patent US7550469B2, “Heterocyclic amide derivatives and their use as dopamine D3 receptor ligands” (Aventis Pharmaceuticals Inc., priority 2001, dated 2009):
pKi: −log10 of the molar value. Like-named read-outs stand apart in the source and are kept apart here. Blank lines part the entries; values can stand above or below the compound they belong to.

Biological target: T1, cloned human dopamine D3 receptors (Homo sapiens, UniProt P35462)
T1 construct: expressed in transfected cells; membrane homogenate
Experiment: [N-Methyl-3H]Spiroperidol binding to cloned human dopamine D3 receptors (Protocol 1)
Settings: for Ki: D3 Ki (nM)
How it was run: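 Membranes from CHO cells stably expressing cloned human D3 receptor were used for [N-methyl-3H]spiroperidol (60-90 Ci/mmol) binding. Assay buffer was 0.05 M Tris HCl pH 7.7 with 120 mM NaCl, 5 mM KCl, 2 mM CaCl2 and 1 mM MgCl2, optionally 0.1% ascorbic acid; total ligand concentration calculated from added CPM.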

[1] = the 22nd table, read-out: D3 Ki
[2] = the 17th table, read-out: D3 Ki
[3] = the 24th table, read-out: D3 Ki
[4] = the 23rd table, read-out: D3 Ki
[5] = the 26th table, read-out: D3 Ki

T1 sequence (P35462 whole entry): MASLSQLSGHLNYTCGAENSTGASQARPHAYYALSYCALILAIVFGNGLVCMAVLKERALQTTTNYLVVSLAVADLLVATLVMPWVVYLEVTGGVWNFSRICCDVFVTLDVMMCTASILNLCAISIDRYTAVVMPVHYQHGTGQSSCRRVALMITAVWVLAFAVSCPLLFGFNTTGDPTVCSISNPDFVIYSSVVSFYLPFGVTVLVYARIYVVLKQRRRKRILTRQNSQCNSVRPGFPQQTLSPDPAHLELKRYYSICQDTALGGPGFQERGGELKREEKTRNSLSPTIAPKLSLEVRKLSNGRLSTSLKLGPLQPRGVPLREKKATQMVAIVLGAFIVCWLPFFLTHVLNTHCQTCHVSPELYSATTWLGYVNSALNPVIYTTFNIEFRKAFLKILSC

SMILES: O=C(NC/C=C/CN1CCN(c2csc3cc(C(F)(F)F)ccc23)CC1)C1CCC1 [compound 827711]
pKi (read-out: D3K1): 6.64

SMILES: O=C(NC/C=C/CN1CCN(c2csc3cc(C(F)(F)F)ccc23)CC1)C1CCCC1 [compound 827712]
pKi (read-out: D3K1): 7.18

SMILES: O=C(NC/C=C/CN1CCN(c2csc3cc(C(F)(F)F)ccc23)CC1)c1ccccn1 [compound 827713]
pKi (read-out: D3K1): 7.19

SMILES: O=C(NC/C=C/CN1CCN(c2csc3cc(C(F)(F)F)ccc23)CC1)c1cccnc1 [compound 827714]
pKi (read-out: D3K1): 7.37

SMILES: O=C(NC/C=C/CN1CCN(c2csc3cc(C(F)(F)F)ccc23)CC1)c1ccccc1 [compound 827715]
pKi (read-out: D3K1): 7.62

SMILES: O=C(NC/C=C/CN1CCN(c2csc3cc(C(F)(F)F)ccc23)CC1)c1cc(F)cc(F)c1 [compound 827716]
pKi (read-out: D3K1): 7.01

SMILES: O=C(NC/C=C/CN1CCN(c2csc3cc(C(F)(F)F)ccc23)CC1)C1CCCCC1 [compound 827717]
pKi (read-out: D3K1): 8.02

SMILES: O=C(NC/C=C/CN1CCN(c2csc3cc(C(F)(F)F)ccc23)CC1)c1cccc(Cl)c1 [compound 827718]
pKi (read-out: D3K1): 6.82

SMILES: O=C(NC/C=C/CN1CCN(c2csc3cc(C(F)(F)F)ccc23)CC1)c1ccc(F)cc1 [compound 827719]
pKi (read-out: D3K1): 7.29

SMILES: O=C(NC/C=C/CN1CCN(c2csc3cc(C(F)(F)F)ccc23)CC1)c1cccc(F)c1 [compound 827720]
pKi (read-out: D3K1): 7.07

SMILES: N#Cc1cccc(C(=O)NC/C=C/CN2CCN(c3csc4cc(C(F)(F)F)ccc34)CC2)c1 [compound 827721]
pKi (read-out: D3K1): 7.04

SMILES: COc1cccc(C(=O)NC/C=C/CN2CCN(c3csc4cc(C(F)(F)F)ccc34)CC2)c1 [compound 827722]
pKi (read-out: D3K1): 7.23

SMILES: O=C(NC/C=C/CN1CCN(c2csc3cc(C(F)(F)F)ccc23)CC1)c1cccc(C(F)(F)F)c1 [compound 827724]
pKi (read-out: D3K1): 6.92

SMILES: O=C(COc1ccccc1)NC/C=C/CN1CCN(c2csc3cc(C(F)(F)F)ccc23)CC1 [compound 827725]
pKi (read-out: D3K1): 6.92

SMILES: O=C(NC/C=C/CN1CCN(c2csc3cc(C(F)(F)F)ccc23)CC1)c1ccc(OC(F)(F)F)cc1 [compound 827726]
pKi (read-out: D3K1): 7.04

SMILES: O=C(NC/C=C/CN1CCN(c2csc3cc(C(F)(F)F)ccc23)CC1)c1cc2ccccc2s1 [compound 827728]
pKi (read-out: D3K1): 7.80

SMILES: O=C(NCCCCCCN1CCN(c2csc3cc(C(F)(F)F)ccc23)CC1)c1cccc(F)c1 [compound 827730]
pKi (read-out: D3K1): 8.57
pKi (the 14th table, read-out: D3 Ki): 8.57

SMILES: COc1ccc(C(=O)NC/C=C\CN2CCN(c3csc4cc(C(F)(F)F)ccc34)CC2)cc1 [compound 827734]
pKi (Table 2, read-out: D3K1): 7.43

SMILES: COc1ccc(/C=C/C(=O)NC/C=C\CN2CCN(c3csc4cc(C(F)(F)F)ccc34)CC2)cc1 [compound 827735]
pKi (Table 2, read-out: D3K1): 7.61

SMILES: O=C(NC/C=C\CN1CCN(c2csc3cc(C(F)(F)F)ccc23)CC1)C1(c2ccccc2)CC1 [compound 827736]
pKi (Table 2, read-out: D3K1): 6.76

SMILES: CC(=O)C1CC(CC(=O)NC/C=C\CN2CCN(c3csc4cc(C(F)(F)F)ccc34)CC2)C1(C)C (centres unmarked) [compound 827737]
pKi (Table 2, read-out: D3K1): 6.97

SMILES: COc1ccc(C(=O)NC/C=C/CN2CCN(c3csc4cc(C(F)(F)F)ccc34)CC2)cc1 [compound 827738]
pKi (Table 2, read-out: D3K1): 7.65

SMILES: COc1ccc(/C=C/C(=O)NC/C=C/CN2CCN(c3csc4cc(C(F)(F)F)ccc34)CC2)cc1 [compound 827739]
pKi (Table 2, read-out: D3K1): 7.65

SMILES: O=C(NC/C=C/CN1CCN(c2csc3cc(C(F)(F)F)ccc23)CC1)C1(c2ccccc2)CC1 [compound 827740]
pKi (Table 2, read-out: D3K1): 6.40

SMILES: CC(=O)C1CC(CC(=O)NC/C=C/CN2CCN(c3csc4cc(C(F)(F)F)ccc34)CC2)C1(C)C (centres unmarked) [compound 827741]
pKi (Table 2, read-out: D3K1): 6.61

SMILES: O=C(NC/C=C/CN1CCN(c2csc3cc(C(F)(F)F)ccc23)CC1)c1cc2ccccc2[nH]1 [compound 827742]
pKi (Table 2, read-out: D3K1): 7.67

SMILES: O=C(NCCCCN1CCN(c2noc3ccsc23)CC1)c1cccc(C(F)(F)F)c1 [compound 829673]
pKi [1]: 6.29

SMILES: O=C(NCCCCN1CCN(c2noc3ccsc23)CC1)c1ccc(F)cc1 [compound 829674]
pKi [1]: 7.04

SMILES: O=C(NCCCCN1CCN(c2noc3ccsc23)CC1)c1ccc(Cl)cc1 [compound 829675]
pKi [1]: 7.41

SMILES: O=C(NCCCCN1CCN(c2noc3ccsc23)CC1)c1ccc(C(F)(F)F)cc1 [compound 829677]
pKi [1]: 7.02

SMILES: O=C(NCCCCN1CCN(c2noc3ccsc23)CC1)c1cc(Cl)cc(Cl)c1 [compound 829678]
pKi [1]: 6.56

SMILES: O=C(NCCCCN1CCN(c2noc3ccsc23)CC1)c1ccc(-c2ccccc2)cc1 [compound 829680]
pKi [1]: 7.83

SMILES: O=C(NCCCCN1CCN(c2noc3ccsc23)CC1)c1cc2ccccc2s1 [compound 829681]
pKi [1]: 7.75

SMILES: O=C(NCCCCN1CCN(c2noc3ccsc23)CC1)c1cc2ccccc2[nH]1 [compound 829682]
pKi [1]: 7.72

SMILES: O=C(NCCCCN1CCN(c2noc3ccsc23)CC1)c1ccc2[nH]ccc2c1 [compound 829683]
pKi [1]: 7.43

SMILES: CCCCc1ccc(C(=O)NCCCCN2CCN(c3noc4ccsc34)CC2)cc1 [compound 829685]
pKi [1]: 6.83

SMILES: N#Cc1ccc(C(=O)NCCCCN2CCN(c3noc4ccsc34)CC2)cc1 [compound 829686]
pKi [1]: 7.38

SMILES: O=C(NCCCCN1CCN(c2noc3ccsc23)CC1)c1cccs1 [compound 829687]
pKi [1]: 7.30

SMILES: COc1ccc(OC(=O)NCC2CC2CN2CCC(c3noc4ccsc34)CC2)cc1 (centres unmarked) [compound 831671]
Ki (the 25th table): 96.4 nM

SMILES: O=C(NCC1CC1CN1CCC(c2noc3ccsc23)CC1)Oc1ccc(F)cc1 (centres unmarked) [compound 831697]
Ki (the 25th table): 8.35 nM

SMILES: Cc1ccc(OC(=O)NCC2CC2CN2CCC(c3noc4ccsc34)CC2)cc1 (centres unmarked) [compound 831698]
Ki (the 25th table): 29.4 nM

SMILES: O=C(NCC1CC1CN1CCC(c2noc3ccsc23)CC1)Oc1ccccc1 (centres unmarked) [compound 831699]
Ki (the 25th table): 3.04 nM

Other lines, results leading:

pKi [1]: 6.17
SMILES: O=C(NCCCCN1CCN(c2noc3ccsc23)CC1)c1cnc2ccccc2n1 [compound 829688]

pKi [1]: 6.82
SMILES: O=C(NCCCCN1CCN(c2noc3ccsc23)CC1)c1cc(C(F)(F)F)ccc1F [compound 829691]

pKi [1]: 7.20
SMILES: Cc1csc2c(N3CCN(CCCCNC(=O)CCCc4ccccc4)CC3)noc12 [compound 830748]

pKi [2]: 8.49
SMILES: O=C(Cc1ccccc1)NC[C@@H]1CC1CN1CCCN(c2csc3cc(F)ccc23)CC1 (some centres unmarked) [compound 831203]

pKi [2]: 8.30
SMILES: O=C(Cc1ccccc1)NC[C@@H]1CC1CN1CCCN(c2csc3cc(F)ccc23)CC1 (some centres unmarked) [compound 831204]

pKi [3]: 7.44
SMILES: O=S(=O)(NCC1CC1CN1CCC(c2noc3ccsc23)CC1)c1ccc(F)cc1 (centres unmarked) [compound 831363]

pKi [3]: 6.95
SMILES: CC(C)S(=O)(=O)NCC1CC1CN1CCC(c2noc3ccsc23)CC1 (centres unmarked) [compound 831366]

pKi [3]: 7.36
SMILES: COc1ccc(S(=O)(=O)NCC2CC2CN2CCC(c3noc4ccsc34)CC2)cc1 (centres unmarked) [compound 831464]

pKi [3]: 7.55
SMILES: COc1ccc(S(=O)(=O)NCC2CC2CN2CCN(c3csc4cc(C(F)(F)F)ccc34)CC2)cc1 (centres unmarked) [compound 831500]

pKi [3]: 7.27
SMILES: CC(C)(C)c1ccc(S(=O)(=O)NCC2CC2CN2CCC(c3noc4ccsc34)CC2)cc1 (centres unmarked) [compound 831512]

pKi [3]: 7.18
SMILES: O=S(=O)(NCC1CC1CN1CCC(c2noc3ccsc23)CC1)c1ccc(OC(F)(F)F)cc1 (centres unmarked) [compound 831513]

pKi [3]: 6.71
SMILES: O=S(=O)(NCC1CC1CN1CCN(c2csc3cc(C(F)(F)F)ccc23)CC1)c1ccc(OC(F)(F)F)cc1 (centres unmarked) [compound 831592]

pKi [3]: 6.73
SMILES: CCCCS(=O)(=O)NCC1CC1CN1CCN(c2csc3cc(C(F)(F)F)ccc23)CC1 (centres unmarked) [compound 831636]

pKi (the 25th table, read-out: D3 Ki): 7.53
SMILES: CCCCOC(=O)NCC1CC1CN1CCC(c2noc3ccsc23)CC1 (centres unmarked) [compound 831696]

pKi [4]: 7.92
SMILES: CC[C@H]1CC[C@H](NC[C@@H]2C[C@H]2CN2CCN(c3ccccc3C)CC2)CC1 [compound 831876]

pKi [3]: 6.56
SMILES: O=S(=O)(CCc1cccc2ccccc12)NCC1CC1CN1CCN(c2csc3cc(C(F)(F)F)ccc23)CC1 (centres unmarked) [compound 831910]

pKi [5]: 7.05
SMILES: OC(CCN1CCC(c2noc3ccsc23)CC1)CN1CCN(c2ccc(F)cc2)CC1 (centres unmarked) [compound 831939]

pKi [5]: 6.45
SMILES: OC(CCN1CCC(c2noc3ccsc23)CC1)CN1CCOCC1 (centres unmarked) [compound 831940]

pKi [5]: 6.79
SMILES: OC(CCN1CCC(c2noc3ccsc23)CC1)CN1CCc2ccccc2C1 (centres unmarked) [compound 831941]

pKi [5]: 6.58
SMILES: OC(CCN1CCC(c2noc3ccsc23)CC1)CN1CCN(c2ccccc2)CC1 (centres unmarked) [compound 831943]

pKi [5]: 7.41
SMILES: OC(CCN1CCC(c2noc3ccsc23)CC1)CN1CCC(Cc2ccccc2)CC1 (centres unmarked) [compound 831944]

pKi [5]: 6.15
SMILES: OC(CCN1CCC(c2noc3ccsc23)CC1)CNCCc1ccccc1 (centres unmarked) [compound 831945]

pKi [4]: 7.87
SMILES: C[C@H]1CC[C@H](NC[C@@H]2C[C@H]2CN2CCN(c3csc4cc(C(F)(F)F)ccc34)CC2)CC1 [compound 832209]

pKi [4]: 7.14
SMILES: CCC1CCC(NCC2CC2CN2CCN(c3cc(C)ccc3C)CC2)CC1 (centres unmarked) [compound 832265]

pKi [4]: 7.53
SMILES: CC[C@H]1CC[C@H](NC[C@@H]2C[C@H]2CN2CCN(c3ccc(C)cc3C)CC2)CC1 [compound 832266]

pKi [4]: 7.47
SMILES: C[C@H]1CC[C@H](NC[C@@H]2C[C@H]2CN2CCC(c3noc4c(C(F)(F)F)cccc34)CC2)CC1 [compound 832275]

pKi [4]: 7.52
SMILES: CC(C)CCNC[C@@H]1C[C@H]1CN1CCN(c2csc3cc(C(F)(F)F)ccc23)CC1 [compound 832276]

pKi [4]: 7.24
SMILES: COc1ccc(NC[C@@H]2C[C@H]2CN2CCN(c3csc4cc(C(F)(F)F)ccc34)CC2)cc1 [compound 832279]

pKi [4]: 7.72
SMILES: CSCCCNC[C@@H]1C[C@H]1CN1CCN(c2csc3cc(C(F)(F)F)ccc23)CC1 [compound 832280]

pKi [4]: 8.25
SMILES: FC(F)(F)c1ccc2c(N3CCN(C[C@@H]4C[C@H]4CNCCc4cccnc4)CC3)csc2c1 [compound 832281]

pKi [4]: 6.64
SMILES: FC(F)(F)c1ccc2c(N3CCN(C[C@@H]4C[C@H]4CNCCc4ccccc4)CC3)csc2c1 [compound 832322]
